Patent US20250108038A1 (priority 2023, published 2025)
Where “and” joins values, the source holds several entries; their conditions need not be identical. Identical values can stand only once.

Tests used:
in vivo = details: for plasma concentration of Compound A: after Compound I-19 single PO 6.645 mg/kg
Experimental: Dose solutions were prepared freshly on each day of studies prior to dosing.
The animals were weighed immediately prior to dosing and the dose volume was calculated individually based the obtained body weight and the nominal dose volume. […] The nominal dose volume was 10 mL/kg in both studies.
Cage side observation was performed before and after dosing as well as at each scheduled sample collection time. The observation included appearance, posture, behavior, morbidity and mortality. Abnormal findings, if any, are required to be recorded in the study record and communicated with study director, veterinarian, and Supernus if necessary.
Approximately 40 μL blood was collected at each scheduled time point from saphenous veins. The actual sample collection time was within 1 min. of the nominal time for collections prior to or at 1 hour, and within 5% of the nominal values for collections post 1 hour.
The blood samples were placed in pre-labeled micro-centrifuge tubes containing K2EDTA as anticoagulant and kept on ice before they were processed to plasma within 30 minutes of collection by centrifugation at 4° C., 3000 g for 5 minutes. The plasma samples were stored at −70±10° C. until LC-MS/MS analysis.
Plasma concentrations below the LLOQ prior to Tmax were set to zero, and those after Tmax were excluded from PK calculation. The nominal dose and the nominal sample collection time were used for the calculation. The values of plasma concentrations and PK parameters are reported to three significant figures. The average values of each treatment group are presented as mean±SD.

Wistar rats = format: in vivo, Wistar rat
Experimental: Animals were trained in eight automated 5C-SRTT operant chambers (Med Associates, St. Albans, VT, USA), controlled by MedPC software (Med Associates). Briefly, each operant chamber was equipped with 5 apertures containing a photocell beam to detect nose pokes and a lamp (2.8 W) that could be illuminated randomly at varying durations. Food pellets (45 mg chow pellet, BioServ, Frenchtown, NJ, USA) were delivered automatically to a magazine, located on the opposite wall to the nose pokes, that was also equipped with a light that turned on to indicate that a pellet had been dispensed. The house-light remained on for the entire session unless an error or omission occurred. Training sessions began with the delivery of a food reward and retrieval triggered the first trial. […] Training began with the stimulus duration set at 10 sec, a limited hold period of 5 sec and an ITI of 5 sec. […] Sessions ended when 40 minutes had lapsed or 100 trials had been completed.
Upon meeting the performance criteria, animals were assessed in the vSD version of the task where the following stimulus durations were presented in a pseudorandom manner: 0.3, 0.6 and 0.9 sec. Later, subjects were assessed in the vITI version where 2.5, 5.0 and 10.0 sec ITIs were employed in a pseudorandom manner. Performance parameters measured were: % hit ((# correct/(# correct+# incorrect including omissions))×100); % correct ((# correct/(# correct+# incorrect excluding omissions))×100); premature responses (# of nose-pokes into any aperture after trial initiation but before onset of the stimulus light); timeout responses (# of nose pokes into any aperture during a timeout period), perseverative responses (# of nose pokes occurring after the correct response had been made but before reward collection); # of food magazine head entries, omissions and total trials completed. The latency to correct response (time taken from the onset of the nose poke light stimulus to making the correct nose poke response), latency to incorrect response (time taken from onset of nose poke light stimulus to making the incorrect nose poke response), and latency to reward (i.e., the magazine latency, time taken from making a correct nose poke response to retrieving the reward from the magazine) was also recorded.
Drug doses and vehicle were administered in a pseudorandom fashion. Drug or vehicle sessions were performed 1-2 times per week with maintenance training (behavioral testing without drug or vehicle injections) interspersed.
All data were collated and entered into Microsoft Excel spreadsheets. The data were subsequently imported into StatView 5.0 for statistical analyses. One and two factor analysis of variance (ANOVA) tests were used with repeated measures when indicated, followed by Fisher LSD or Student Newman Keuls as post-hoc tests. All results were expressed as the mean (±S.E.M.). Differences between means from experimental groups were considered significant at the p<0.05 level. The statistical F values and degrees of freedom associated with the two factor ANOVA analyses are provided in the text of this report. Please refer to the statistical reports in the appendices for the values associated with one factor ANOVAs for the overall means and overall total values.

[1] = after Compound I-19 IP 4.061 mg/kg, average
[2] = after Compound I-19 IP 4.061 mg/kg, mean±SD
[3] = after Compound I-19 PO 6.645 mg/kg, mean±SD
[4] = single IP Compound I-19 4.061 mg/kg, male CD-1 mice, individual animals
[5] = single IP Compound I-19 4.061 mg/kg, male CD-1 mice, mean
[6] = single PO Compound I-19 6.645 mg/kg, male CD-1 mice, individual animals
[7] = single PO Compound I-19 6.645 mg/kg, male CD-1 mice, mean

With `Clc1ccc(C2(OCC3OCCO3)c3ccccc3C3=NCCN32)cc1` (stereo not drawn) [Compound I-19] the “AUC0-last of Compound I-19” value (in vivo; IP 4.061 mg/kg, mean±SD) was 482 ± 92.9 ng·h/mL, the “Cmax of Compound I-19” value (in vivo; IP 4.061 mg/kg, mean±SD) was 373 ± 101 ng/mL and the “MRT0-last of Compound I-19” value (in vivo; IP 4.061 mg/kg, mean±SD) was 69 ± 24.4 min. The “T1/2 of Compound I-19” value (in vivo; IP 4.061 mg/kg, mean±SD) was 37.9 ± 16.2 min, the “Tmax of Compound I-19” value (in vivo; IP 4.061 mg/kg, mean±SD) was 25 ± 8.64 min and the “AUC0-last of Compound I-19” value (in vivo; PO 6.645 mg/kg, mean±SD) was 2.04 ± 2.56 ng·h/mL. The “Cmax of Compound I-19” value (in vivo; PO 6.645 mg/kg, mean±SD) was 4.27 ± 3.1 ng/mL, the “MRT0-last of Compound I-19” value (in vivo; PO 6.645 mg/kg, mean±SD) was 21.9 ± 7.56 min and the “Tmax of Compound I-19” value (in vivo; PO 6.645 mg/kg, mean±SD) was 20 ± 8.64 min. For the same compound, the “MRT0-last of Compound B” value (in vivo; [1]) was 186 min, the “T1/2 of Compound B” value (in vivo; [1]) was 220 min and the “Tmax of Compound B” value (in vivo; [1]) was 120 min. The “AUC0-last of Compound A” value (in vivo; [2]) was 104 ± 36.7 ng·h/mL, the “AUC0-last of Compound B” value (in vivo; [2]) was 120 ± 58.1 ng·h/mL and the “Cmax of Compound A” value (in vivo; [2]) was 50.5 ± 20 ng/mL. The “Cmax of Compound B” value (in vivo; [2]) was 30.7 ± 5.42 ng/mL, the “MRT0-last of Compound A” value (in vivo; [2]) was 106 ± 27.2 min and the “T1/2 of Compound A” value (in vivo; [2]) was 75 ± 18.8 min. The “Tmax of Compound A” value (in vivo; [2]) was 40 ± 17.3 min, the “AUC0-last of Compound A” value (in vivo; [3]) was 203 ± 45.2 ng·h/mL and the “Cmax of Compound A” value (in vivo; [3]) was 158 ± 27.2 ng/mL. The “MRT0-last of Compound A” value (in vivo; [3]) was 71.4 ± 4.14 min, the “T1/2 of Compound A” value (in vivo; [3]) was 51.3 ± 10.4 min and the “Tmax of Compound A” value (in vivo; [3]) was 20 ± 8.64 min. For the same compound, the “plasma concentration of Compound A” value (in vivo; 0.500 h, mean) was 126 ng/mL, the “plasma concentration of Compound A” value (in vivo; 1.00 h, individual mice, 6.645 mg/kg) was 123 ng/mL and 54.4 ng/mL and 83.2 ng/mL and the “plasma concentration of Compound A” value (in vivo; 1.00 h, mean) was 86.9 ng/mL. The “plasma concentration of Compound A” value (in vivo; 2.00 h, individual mice, 6.645 mg/kg) was 44.1 ng/mL and 31.3 ng/mL and 36.7 ng/mL, the “plasma concentration of Compound A” value (in vivo; 2.00 h, mean) was 37.4 ng/mL and the “plasma concentration of Compound A” value (in vivo; 4.00 h, individual mice, 6.645 mg/kg) was 5.24 ng/mL and 6.75 ng/mL and 8.65 ng/mL. For the same compound, the “plasma concentration of Compound A” value (in vivo; 4.00 h, mean) was 6.88 ng/mL, the “plasma concentration of Compound A” value (in vivo; 8.00 h, individual mice) was “BQL” and the “plasma concentration of Compound A” value (in vivo; 24.0 h, individual mice) was “BQL”. The “Clinical observation (tolerability)” value (in vivo; male CD-1 mice, administered dosages (Compound A PO 5.102 mg/kg; Compound I-19 PO 6.645, IP 4.061 mg/kg)) was “well tolerated”, the “plasma concentration of Compound I-19” value (in vivo; single IP 4.061 mg/kg, 0.500 h, individual mice, 4.061 mg/kg) was 415 ng/mL and 311 ng/mL and 318 ng/mL and the “plasma concentration of Compound I-19” value (in vivo; single IP 4.061 mg/kg, 0.500 h, mean) was 348 ng/mL. For the same compound, the “plasma concentration of Compound I-19” value (in vivo; single IP 4.061 mg/kg, 1.00 h, individual mice, 4.061 mg/kg) was 196 ng/mL and 269 ng/mL and 201 ng/mL, the “plasma concentration of Compound I-19” value (in vivo; single IP 4.061 mg/kg, 1.00 h, mean) was 222 ng/mL and the “plasma concentration of Compound I-19” value (in vivo; single IP 4.061 mg/kg, 2.00 h, individual mice, 4.061 mg/kg) was 39.7 ng/mL and 100 ng/mL and 71.6 ng/mL. For the same compound, the “plasma concentration of Compound I-19” value (in vivo; single IP 4.061 mg/kg, 2.00 h, mean) was 70.4 ng/mL, the “plasma concentration of Compound I-19” value (in vivo; single IP 4.061 mg/kg, 4.00 h, mean) was 13.1 ng/mL and the “plasma concentration of Compound I-19” value (in vivo; single IP 4.061 mg/kg, 8.00 h, individual mice) was 1.39 ng/mL. For the same compound, the “plasma concentration of Compound I-19” value (in vivo; single IP 4.061 mg/kg, 8.00 h, individual mice, 4.061 mg/kg) was “BQL”, the “plasma concentration of Compound I-19” value (in vivo; single IP 4.061 mg/kg, 24.0 h, individual mice) was “BQL” and the “AUC0-inf of Compound I-19” value (in vivo; [4]) was 444 ng·h/mL and 589 ng·h/mL and 417 ng·h/mL. The “AUC0-last of Compound I-19” value (in vivo; [4]) was 443 ng·h/mL and 588 ng·h/mL and 414 ng·h/mL, the “Cmax of Compound I-19” value (in vivo; [4]) was 489 ng/mL and 311 ng/mL and 318 ng/mL and the “MRT0-inf of Compound I-19” value (in vivo; [4]) was 49.6 min and 97.2 min and 62.4 min. For the same compound, the “MRT0-last of Compound I-19” value (in vivo; [4]) was 48.9 min and 96 min and 61.2 min, the “T1/2 of Compound I-19” value (in vivo; [4]) was 27.1 min and 56.5 min and 29.9 min and the “Tlast of Compound I-19” value (in vivo; [4]) was 4.00 h (2×) and 8.00 h. The “Tmax of Compound I-19” value (in vivo; [4]) was 30 min, the “AUC0-inf of Compound I-19” value (in vivo; [5]) was 483 ng·h/mL and the “AUC0-last of Compound I-19” value (in vivo; [5]) was 482 ng·h/mL. The “Cmax of Compound I-19” value (in vivo; [5]) was 373 ng/mL, the “MRT0-inf of Compound I-19” value (in vivo; [5]) was 69.6 min and the “MRT0-last of Compound I-19” value (in vivo; [5]) was 69 min. The “T1/2 of Compound I-19” value (in vivo; [5]) was 37.9 min, the “Tlast of Compound I-19” value (in vivo; [5]) was 5.33 h and the “Tmax of Compound I-19” value (in vivo; [5]) was 25 min. The “plasma concentration of Compound I-19” value (in vivo; single PO 6.654 mg/kg (as titled), 0.500 h, mean) was 4.55 ng/mL, the “plasma concentration of Compound I-19” value (in vivo; single PO 6.654 mg/kg (as titled), 2.00 h, individual mice) was “BQL” and the “plasma concentration of Compound I-19” value (in vivo; single PO 6.654 mg/kg (as titled), 4.00 h, individual mice) was “BQL”. For the same compound, the “plasma concentration of Compound I-19” value (in vivo; single PO 6.654 mg/kg (as titled), 8.00 h, individual mice) was “BQL”, the “plasma concentration of Compound I-19” value (in vivo; single PO 6.654 mg/kg (as titled), 24.0 h, individual mice) was “BQL” and the “plasma concentration of Compound I-19” value (in vivo; single PO 6.654 mg/kg (as titled), […] h, individual mice) was 2.78 ng/mL. The “plasma concentration of Compound I-19” value (in vivo; single PO 6.654 mg/kg (as titled), […] h, individual mice, 6.654 mg/kg) was “BQL”, the “AUC0-inf of Compound I-19” value (in vivo; [6]) was 6.92 ng·h/mL and the “MRT0-inf of Compound I-19” value (in vivo; [6]) was 50.2 min. For the same compound, the “MRT0-last of Compound I-19” value (in vivo; [6]) was 20.8 min and 15 min and 29.9 min, the “T1/2 of Compound I-19” value (in vivo; [6]) was 29.1 min and the “Tmax of Compound I-19” value (in vivo; [6]) was 30 min. The “AUC0-last of Compound I-19” value (in vivo; [7]) was 2.04 ng·h/mL, the “Cmax of Compound I-19” value (in vivo; [7]) was 4.27 ng/mL and the “MRT0-last of Compound I-19” value (in vivo; [7]) was 21.9 min. For the same compound, the “Tlast of Compound I-19” value (in vivo; [7]) was 0.583 h, the “Tmax of Compound I-19” value (in vivo; [7]) was 20 min and the “% hit rate” value (Wistar rats; nicotine 0.05-0.2 mg/kg sc, Compound I-4 0.1-3.0 mg/kg ip, Compound I-19 0.03-1.0 mg/kg ip) was “dose-dependent decrease in the % hit rate”. For the same compound, the “% correct” value (Wistar rats; same doses) was “no statistically significant dose-related effects”, the Magazine Head Entries (Wistar rats; same doses) was “decreased in a dose-dependent manner” and the Omissions (Wistar rats; same doses) was “increase in the number of omissions”. The “number of trials completed” value (Wistar rats; same doses) was “decreases in the number of trials completed”, the perseverative responses (Wistar rats; same doses) was “very modest reduction in the number of perseverative responses” and the premature responses (Wistar rats; same doses) was “decrease in the number of premature responses”. For the same compound, the “response latencies (correct, incorrect)” value (Wistar rats; same doses) was “very modest increases in the response latencies”, the reward latencies (Wistar rats; same doses) was “some increases in the reward latencies, but they were not statistically significant” and the timeout responses (Wistar rats; same doses) was “decrease in the number of premature responses, timeout responses, magazine head entries, and perseverative responses”.
